The values below come from patent publication US4358607A, “Chloro-substituted benzospiro cyclopropane carboxylic acid” (American Cyanamid Co., priority 1978, dated 1982).

Common to all, as to format: in vivo
Assay [1] concerns Southern Armyworm [Spodoptera eridania]. Briefly: Southern Armyworm test. Particulars: 2 days. As for the experimental part: (§1) Southern Armyworm [Spodoptera eridania (Cramer)].
(§2) A sieva lima bean plant with just the primary leaves expanded to 7.6 to 10 cm is dipped for 3 seconds with agitation in a 1000 ppm solution and set in a hood to dry. Following this, one leaf is placed in a 10 cm petri dish which has a moist filter paper in the bottom and 10 third-instar armyworm larvae about 1 cm long. The dish is covered and held at 26.7° C. After 2 days mortality counts and estimates of the amount of feeding are made. Compounds showing partial kill and/or inhibition of feeding are held for an extra day for further observations.
(§3) The rating system employed in these tests is as follows:
(§4) Compounds rated active (8 or 9) are further tested at reduced concentrations in 50% acetone: 50% water.

The subject of assay [2] is Mexican Bean Beetle (Epilachna varivestis). Briefly: Mexican Bean Beetle test.
Source text: Mexican Bean Beetle (Epilachna varivestis Mulsant)
Sieva lima bean plants (2 per pot) with primary leaves 7.6 to 10 cm long, are dipped in a 300 ppm solution and set in a hood to dry. One leaf is removed from the plant and placed in a 10 cm petri dish containing a moist filter paper on the bottom and 10 last-instar larvae (13 days from hatching).
The day after treatment, another leaf is removed from the plant and fed to the larvae after removing the remains of the original leaf. Two days after treatment, the third leaf is fed to the larvae, this usually being the last needed. The fourth leaf is used on the third day after treatment if the larvae have not finished feeding. The test is now set aside and held until adults have emerged, usually about 9 days after treatment began. After emergence is complete, each dish is examined for dead larvae, pupae or adults; deformed pupae or adults; larval-pupal intermediates or pupal-adult intermediates; or any other interference with normal molting, transformation and emergence of pupae or adults.
as §3, §4

In assay [3] the test system is Two-Spotted Spider Mite [Tetranychus urticae]. The assay can be described thus: Phosphate-Resistant Strain of Two-Spotted Spider Mite test. As for the experimental part:
Phosphate-Resistant Strain of Two-Spotted Spider Mite [Tetranychus urticae (Koch)].
Sieva lima bean plants, with primary leaves 7.6 to 10 cm long, are infested with about 100 adult mites per leaf 4 hours before use in this test, in order to allow egg-laying before treatment. The infested plants are dipped for 3 seconds with agitation into a 300 ppm solution, and the plants set in the hood to dry. After 2 days at 26.7° C., the adult mite mortality is estimated on one leaf under a 10X stereoscopic microscope. The other leaf is left on the plant an additional 5 days and then examined at 10X power to estimate the kill of eggs and of newly-hatched nymphs, giving a measure of ovicidal and residual action, respectively.
as §3, §4

For assay [4], the system named is Southern Armyworm [Spodoptera eridania]. The assay can be described thus: Southern Armyworm residual activity, 7 days. To be noted: 7 days from original treatment. Here is the method: as §1, §2
All compounds showing activity as defined above are retested, using the second leaf on the bean plant, after an interval of 7 days from original treatment, as an assay of residual activity.
The rating system employed in these tests is as follows: […]

Assay [5] deals with Tobacco Budworm [Heliothis virescens] larvae. The assay can be described thus: Tobacco Budworm newly hatched larvae test. Particulars: 3 days. As for the experimental part:
(§5) Tobacco Budworm [Heliothis virescens (Fabricus)].
(§6) A cotton plant with 2 true leaves expanded is dipped for 3 seconds with agitation in a 300 ppm solution. A 1.25 to 2 cm square of cheesecloth with about 50 to 100 budworm eggs 0-24 hours old is also dipped in the test solution and placed on one leaf to dry. The leaf with the treated budworm eggs is removed from the plant and placed in a 236.6 ml (8-Oz) Dixie cup with a wet 5 cm piece of dental wick and covered with a lid. The other leaf is placed in a similar cup with a wick and a piece of cheesecloth infested with 50-100 newly hatched larvae is added before covering the cup with a lid. After 3 days at 26.7° C., observations of egg hatch are made as well as kill of newly hatched larvae, any inhibition of feeding, or interference of any sort with normal development.
as §3, §4

For assay [6], the system named is Malaria Mosquito (Anopheles quadrimaculatus). Briefly: Malaria Mosquito egg and larvae test. Here is the method:
Malaria Mosquito (Anopheles quadrimaculatus say) egg and larvae test. One ml of a 300 ppm solution is pipetted into a 400 ml beaker containing 250 ml of deionized water and stirred with the pipette, giving a concentration of 1.2 ppm. A wax paper ring 0.6 cm wide to fit inside the beaker is floated on the surface of the test solution to keep the eggs from floating up the meniscus curve and drying out on the side of the glass. A spoon made of screen is used to scoop up and transfer about 100 eggs (0-24 hours old) into the test beaker. After two days at 26.7°C. observations of hatching are made. This includes kill of eggs or inhibition of hatch, kill of newly hatched larvae, or delayed hatch. Additional observations are made after another day for the same effects. The rating system employed in these tests is as follows: Compounds rated active (8 or 9) are further tested at reduced concentrations in 50% acetone: 50% water.

The test system of assay [7] is Tobacco Budworm [Heliothis virescens] eggs. Briefly: Tobacco Budworm egg test. To be noted: 300 ppm, 3 days. As for the experimental part: as §5, §6, §3, §4

With `CC1(C)C(C(=O)OC(C#N)c2cccc(Oc3ccccc3)c2)C12C=C(Cl)c1ccccc12` (centres unmarked) [drawing 11], the “Insecticidal activity rating, Southern Armyworms” value in assay [1] (10 ppm) is recorded as 7 (71-85% mortality); in assay [1] (100 ppm), 9 (100% mortality); in assay [1] (1000 ppm), 9 (100% mortality). In addition, the “Insecticidal activity rating, Mexican Bean Beetles” value in assay [2] (10 ppm), in assay [2] (100 ppm) and in assay [2] (300 ppm) was 9 (100% mortality) throughout. For the same compound, the “Activity rating, Phosphate Resistant Mites” value in assay [3] (10 ppm) is 0 (0-4% killed or affected); in assay [3] (100 ppm), 5 (51-60% mortality); in assay [3] (300 ppm), 8 (86-95% mortality). In addition, the “Insecticidal activity rating, Southern Armyworms, 7-days” value in assay [4] was 0 (0-4% killed or affected).
`CC1(C)C(C(=O)OCc2cccc(Oc3ccccc3)c2)C12C=C(Cl)c1ccccc12` (centres unmarked) [drawing 10]: the “Insecticidal activity rating, Tobacco Budworm Larvae” value in assay [5] (10 ppm), in assay [5] (100 ppm) and in assay [5] (300 ppm) was 9 (100% mortality) throughout. In addition, the “Insecticidal activity rating, Mosquito Larvae” value in assay [6] (0.04 ppm), in assay [6] (0.4 ppm) and in assay [6] (1.2 ppm) was 9 (100% mortality) each time. Further, the “Insecticidal activity rating, Tobacco Budworm Eggs” value in assay [7] is on record as 0 (0-4% killed or affected).
